From patent US20250340557A1, “PYRIMIDINE DERIVATIVE” (ASKA PHARMACEUTICAL CO., LTD., priority 2022, published 2025) come the findings set out here.

This test addresses T1, human mPGES-1 (Homo sapiens, UniProt O14684).
T1 construct: made in house; host or cells: COS-1 cells (transient transfection; microsomal fraction used as enzyme)
T1 sequence (O14684 1-152): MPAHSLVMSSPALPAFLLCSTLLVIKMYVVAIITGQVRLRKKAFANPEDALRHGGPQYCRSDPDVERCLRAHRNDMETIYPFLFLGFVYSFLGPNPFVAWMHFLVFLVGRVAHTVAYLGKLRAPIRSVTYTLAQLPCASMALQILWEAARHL
The test is described as follows: Test for mPGES-1 inhibitory activity (microsomal enzyme, PGE2 EIA). Type of test: biochemical. The settings on record: microsomes of COS-1 cells transfected with human mPGES-1 cDNA; PGH2 1 μM; 4° C., 4 minutes; PGE2 by EIA; read-out: h mPGES1 IC50. In outline:
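IC50 values were derived from EIA-quantified PGE2 after a 4 min, 4 °C reaction with PGH2 at 1 μM final, stopped with ferric chloride/citric acid. Beforehand, compound (2% DMSO final) sat 15 min at 4 °C with human mPGES-1 microsomes from transiently transfected COS-1 cells. Buffer was sodium phosphate pH 7.2 containing 2.5 mM reduced glutathione and 1 mM EDTA.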
For orientation: IC50 means the concentration that inhibits the measured activity by half. As for `O=c1cc(C(F)(F)F)nc(-c2c(C(F)(F)F)ccc(CNC(=O)[C@H]3C[C@H](Oc4ccc(C(F)(F)F)cn4)C3)c2F)[nH]1` [Example 249, trans-N-{2-fluoro-3-[6-oxo-4-(trifluoromethyl)-1,6-dihydropyrimidin-2-yl]-4-(trifluoromethyl)benzyl}-3-{[5-(trifluoromethyl)pyridin-2-yl]oxy}cyclobutane-1-carboxamide], the half-maximal inhibitory concentration (IC50) was less than 1 nM. For the compound `O=c1cc(C(F)(F)F)nc(-c2c(C(F)(F)F)ccc(CNC(=O)[C@H]3C[C@@H](Oc4ccc(C(F)(F)F)cn4)C3)c2F)[nH]1` [Example 250, cis-N-{2-fluoro-3-[6-oxo-4-(trifluoromethyl)-1,6-dihydropyrimidin-2-yl]-4-(trifluoromethyl)benzyl}-3-{[5-(trifluoromethyl)pyridin-2-yl]oxy}cyclobutane-1-carboxamide], the IC50 was less than 1 nM. Take `O=c1cc(C(F)(F)F)nc(-c2c(C(F)(F)F)ccc(CNC(=O)[C@H]3C[C@H](Oc4ccccc4Cl)C3)c2F)[nH]1` [Example 251, trans-3-(2-chlorophenoxy)-N-{2-fluoro-3-[6-oxo-4-(trifluoromethyl)-1,6-dihydropyrimidin-2-yl]-4-(trifluoromethyl)benzyl}cyclobutane-1-carboxamide]: the IC50 was less than 1 nM. As to `O=c1cc(C(F)(F)F)nc(-c2c(C(F)(F)F)ccc(CNC(=O)[C@H]3C[C@H](Oc4cccc(Cl)c4)C3)c2F)[nH]1` [Example 253, trans-3-(3-chlorophenoxy)-N-{2-fluoro-3-[6-oxo-4-(trifluoromethyl)-1,6-dihydropyrimidin-2-yl]-4-(trifluoromethyl)benzyl}cyclobutane-1-carboxamide], the IC50 worked out at 1 nM. As for `O=c1cc(C(F)(F)F)nc(-c2c(C(F)(F)F)ccc(CNC(=O)[C@H]3C[C@@H](Oc4cccc(Cl)c4)C3)c2F)[nH]1` [Example 254, cis-3-(3-chlorophenoxy)-N-{2-fluoro-3-[6-oxo-4-(trifluoromethyl)-1,6-dihydropyrimidin-2-yl]-4-(trifluoromethyl)benzyl}cyclobutane-1-carboxamide], the IC50 is 4.6 nM. As to `O=c1cc(C(F)(F)F)nc(-c2c(C(F)(F)F)ccc(CNC(=O)[C@H]3C[C@H](Oc4ccc(Cl)cc4)C3)c2F)[nH]1` [Example 255, trans-3-(4-chlorophenoxy)-N-{2-fluoro-3-[6-oxo-4-(trifluoromethyl)-1,6-dihydropyrimidin-2-yl]-4-(trifluoromethyl)benzyl}cyclobutane-1-carboxamide], the IC50 was 2.8 nM. Under `CC(C)CO[C@H]1C[C@@H](C(=O)NCc2ccc(C(F)(F)F)c(-c3nc(C(F)(F)F)cc(=O)[nH]3)c2F)C1` [Example 257, cis-N-{2-fluoro-3-[6-oxo-4-(trifluoromethyl)-1,6-dihydropyrimidin-2-yl]-4-(trifluoromethyl)benzyl}-3-isobutoxycyclobutane-1-carboxamide] stands 5.8 nM.

`O=C(NCc1ccc(C(F)(F)F)c(-c2nc(C(F)(F)F)cc(=O)[nH]2)c1F)N1CCC(Oc2ccc(Cl)c(Cl)c2)CC1` [Example 258, 4-(3,4-dichlorophenoxy)-N-{2-fluoro-3-[6-oxo-4-(trifluoromethyl)-1,6-dihydropyrimidin-2-yl]-4-(trifluoromethyl)benzyl}piperidine-1-carboxamide]: the IC50 is less than 1 nM.

Take `O=C(NCc1ccc(C(F)(F)F)c(-c2nc(C(F)(F)F)cc(=O)[nH]2)c1F)N1CCC(Oc2ccc(C(F)(F)F)cc2)CC1` [Example 260, N-{2-fluoro-3-[6-oxo-4-(trifluoromethyl)-1,6-dihydropyrimidin-2-yl]-4-(trifluoromethyl)benzyl}-4-[4-(trifluoromethyl)phenoxy]piperidine-1-carboxamide]: the IC50 is less than 1 nM.

`O=C(NCc1ccc(C(F)(F)F)c(-c2nc(-c3ccc(C(F)(F)F)cn3)cc(=O)[nH]2)c1F)C1CC(OCc2ccccc2)C1` (centres unmarked) [Example 266, 3-(benzyloxy)-N-(2-fluoro-3-{6-oxo-4-[5-(trifluoromethyl)pyridin-2-yl]-1,6-dihydropyrimidin-2-yl}-4-(trifluoromethyl)benzyl)cyclobutane-1-carboxamide]: the half-maximal inhibitory concentration (IC50) is less than 1 nM. `O=C(NCc1ccc(C(F)(F)F)c(-c2nc(-c3ccc(C(F)(F)F)cn3)cc(=O)[nH]2)c1F)C1CCN(c2ccc3nccn3n2)CC1` [Example 267, N-(2-fluoro-3-{6-oxo-4-[5-(trifluoromethyl)pyridin-2-yl]-1,6-dihydropyrimidin-2-yl}-4-(trifluoromethyl)benzyl)-1-(imidazo[1,2-b]pyridazin-6-yl)piperidine-4-carboxamide]: the IC50 is less than 1 nM. On to `O=c1cc(-c2ccc(C(F)(F)F)cn2)nc(-c2c(C(F)(F)F)ccc(CNS(=O)(=O)c3ccccc3C(F)(F)F)c2F)[nH]1` [Example 269, N-(2-fluoro-3-{6-oxo-4-[5-(trifluoromethyl)pyridin-2-yl]-1,6-dihydropyrimidin-2-yl}-4-(trifluoromethyl)benzyl)-2-(trifluoromethyl)benzenesulfonamide], for which the IC50 amounted to 7.6 nM. Consider `O=c1cc(-c2ccc(C(F)(F)F)cn2)nc(-c2c(C(F)(F)F)ccc(CNS(=O)(=O)c3ccc(-c4ccccc4)cc3)c2F)[nH]1` [Example 271, N-(2-fluoro-3-{6-oxo-4-[5-(trifluoromethyl)pyridin-2-yl]-1,6-dihydropyrimidin-2-yl}-4-(trifluoromethyl)benzyl)-[1,1′-biphenyl]-4-sulfonamide], for which the IC50 stood at 76 nM. Under `O=c1cc(C(F)(F)F)nc(-c2c(C(F)(F)F)ccc(CNS(=O)(=O)c3ccccc3C(F)(F)F)c2F)[nH]1` [Example 272, N-{2-fluoro-3-[6-oxo-4-(trifluoromethyl)-1,6-dihydropyrimidin-2-yl]-4-(trifluoromethyl)benzyl}-2-(trifluoromethyl)benzenesulfonamide] stands 33 nM; under `O=C(NCc1ccc(C(F)(F)F)c(-c2nc(C(F)(F)F)cc(=O)[nH]2)c1F)c1ccccc1C(F)(F)F` [Example 273, N-{2-fluoro-3-[6-oxo-4-(trifluoromethyl)-1,6-dihydropyrimidin-2-yl]-4-(trifluoromethyl)benzyl}-2-(trifluoromethyl)benzamide], 8.4 nM. For the compound `O=C(NCc1ccc(C(F)(F)F)c(-c2nc(C(F)(F)F)cc(=O)[nH]2)c1F)c1cccc(Cl)c1Cl` [Example 274, 2,3-dichloro-N-{2-fluoro-3-[6-oxo-4-(trifluoromethyl)-1,6-dihydropyrimidin-2-yl]-4-(trifluoromethyl)benzyl}benzamide], the IC50 is less than 1 nM. Take `O=C(NCc1ccc(C(F)(F)F)c(-c2nc(C(F)(F)F)cc(=O)[nH]2)c1F)C1CCN(C(=O)Cc2ccc(F)cc2)CC1` [Example 275, N-{2-fluoro-3-[6-oxo-4-(trifluoromethyl)-1,6-dihydropyrimidin-2-yl]-4-(trifluoromethyl)benzyl}-1-[2-(4-fluorophenyl)acetyl]piperidine-4-carboxamide]: the IC50 worked out at 0.94 nM.

Turning to `O=C(NCc1ccc(C(F)(F)F)c(-c2nc(C(F)(F)F)cc(=O)[nH]2)c1F)C1CN(C(=O)Cc2ccc(F)cc2)C1` [Example 276, N-{2-fluoro-3-[6-oxo-4-(trifluoromethyl)-1,6-dihydropyrimidin-2-yl]-4-(trifluoromethyl)benzyl}-1-[2-(4-fluorophenyl)acetyl]azetidine-3-carboxamide], the IC50 stood at 24 nM. Under `O=C(NCc1ccc(C(F)(F)F)c(-c2nc(C(F)(F)F)cc(=O)[nH]2)c1F)C1CCN(CCc2ccccc2)CC1` [Example 278, N-{2-fluoro-3-[6-oxo-4-(trifluoromethyl)-1,6-dihydropyrimidin-2-yl]-4-(trifluoromethyl)benzyl}-1-phenethylpiperidine-4-carboxamide] stands 35 nM; under `O=c1cc(C(F)(F)F)nc(-c2c(C(F)(F)F)ccc(CNC(=O)[C@H]3CC[C@H](c4ccc(Cl)cc4)CC3)c2F)[nH]1` [Example 279, trans-4-(4-chlorophenyl)-N-{2-fluoro-3-[6-oxo-4-(trifluoromethyl)-1,6-dihydropyrimidin-2-yl]-4-(trifluoromethyl)benzyl}cyclohexane-1-carboxamide], less than 1 nM; under `O=C(NCc1ccc(C(F)(F)F)c(-c2nc(C(F)(F)F)cc(=O)[nH]2)c1F)C1Cc2ccccc2C1` [Example 280, N-{2-fluoro-3-[6-oxo-4-(trifluoromethyl)-1,6-dihydropyrimidin-2-yl]-4-(trifluoromethyl)benzyl}-2,3-dihydro-1H-indene-2-carboxamide], less than 1 nM. Under `O=C(NCc1ccc(C(F)(F)F)c(-c2nc(C(F)(F)F)cc(=O)[nH]2)c1F)C1(c2ccc(Cl)cc2)CCCC1` [Example 281, 1-(4-chlorophenyl)-N-{2-fluoro-3-[6-oxo-4-(trifluoromethyl)-1,6-dihydropyrimidin-2-yl]-4-(trifluoromethyl)benzyl}cyclopentane-1-carboxamide] stands 45 nM; under `O=C(Cc1ccc(C(F)(F)F)cc1)NCc1ccc(C(F)(F)F)c(-c2nc(C(F)(F)F)cc(=O)[nH]2)c1F` [Example 283, N-{2-fluoro-3-[6-oxo-4-(trifluoromethyl)-1,6-dihydropyrimidin-2-yl]-4-(trifluoromethyl)benzyl}-2-[4-(trifluoromethyl)phenyl]acetamide], 1.5 nM.
